Reference: patent publication EP0288176A1, “Tyrosine derivatives and use thereof” (AJINOMOTO CO., INC., priority 1987, dated 1988)

How the values were obtained:
[1] = Activity test: peroral administration with insulin, blood glucose decrease and blood insulin increase; format: in vivo, female mice of ICR-CD-1 strain; parameters: key to percent decrease in blood sugar (%): The symbol + means that there was no decrease in blood sugar; key to degree of increase of blood insulin: the symbol - means that there was no increase in blood insulin; conditions: 0.5 U insulin/10 g bodyweight and 3 mg compound/10 g bodyweight, compared with control group
Protocol: The absorption promoting agents according to the present invention shown in Table 1 were suspended in 0.5% CMC - 0.05 M trisHCl buffer (pH 7.8), and mixed with insulin. The resultant mixture was administered perorally to female mice of ICR-CD-1 strain (aged 5 to 7 weeks) at 0.5 U insulin/10 g bodyweight and 3 mg of the above compound/10 g bodyweight. The percent decrease of blood glucose(%) and the degree of increase of blood insulin after predetermined periods of time were compared with those of the control group, and the results are shown in Table 2.
In the Table, the figures given in the upper rows denote 1) percent of decrease in blood glucose(%) and those in the lower rows in parentheses denote 2) degree of increase in blood insulin level. The symbol + means that there was no decrease in blood sugar and the symbol - means that there was no increase in blood insulin.

[2] = Toxicity: LD50 in mice, perorally administered; conditions: mouse, in vivo, po, read-out: LD₅₀
Text: Toxicity of O-alkyl tyrosine derivatives is low; each of LD₅₀ in mice perorally administered of O-methyl-N-(4-methylcinnamoyl)-L-tyrosine (S-1), O-methyl-N-(α-fluoro-4-methylcinnamoyl)-L-tyrosine (S-5), O-methyl-N-(β-chloro-4-methylcinnamoyl)-L-tyrosine (S-9) is 3.0 g/kg or higher.

| Structure (SMILES) | percent decrease in blood sugar (%) ([1]; 30 min.) | percent decrease in blood sugar (%) ([1]; 60 min.) | LD50 [2] [mg/kg] | other results |
| --- | --- | --- | --- | --- |
| CCOc1ccc(C[C@H](NC(=O)C=Cc2ccc(C)cc2)C(=O)O)cc1 [Compound S-2, O-ethyl-N-(4-methylcinnamoyl)-L-tyrosine] | + |  |  | degree of increase of blood insulin ([1]; 30 min.): - |
| COc1ccc(C[C@H](NC(=O)C(F)=Cc2ccccc2)C(=O)O)cc1 [Compound S-4, O-methyl-N-(α-fluorocinnamoyl)-L-tyrosine] |  | + |  |  |
| COc1ccc(C[C@H](NC(=O)C=C(Cl)c2ccc(C)cc2)C(=O)O)cc1 [Compound S-9, O-methyl-N-(β-chloro-4-methylcinnamoyl)-L-tyrosine] |  |  | ≥ 3000 | degree of increase of blood insulin ([1]; 60 min.): - |
| COc1ccc(C[C@H](NC(=O)C=Cc2ccc(C)cc2)C(=O)O)cc1 [Compound S-1, O-methyl-N-(4-methylcinnamoyl)-L-tyrosine] |  |  | ≥ 3000 |  |
| COc1ccc(C[C@H](NC(=O)C(Cl)=Cc2ccc(C)cc2)C(=O)O)cc1 [Compound S-7, O-methyl-N-(α-chloro-4-methylcinnamoyl)-L-tyrosine] | + | + |  | percent decrease in blood sugar (%) ([1]; 15 min.): 28.6% |
| COc1ccc(C[C@@H](NC(=O)C(Cl)=Cc2ccc(C)cc2)C(=O)O)cc1 [Compound S-8, O-methyl-N-(α-chloro-4-methylcinnamoyl)-D-tyrosine] |  | + |  |  |
| CCOc1ccc(C[C@H](NC(=O)C(F)=Cc2ccc(C)cc2)C(=O)O)cc1 [Compound S-6, O-ethyl-N-(α-fluroro-4-methylcinnamoyl)-L-tyrosine] | + | + |  | degree of increase of blood insulin ([1]; 15 min.): 5.3; percent decrease in blood sugar (%) ([1]; 15 min.): 29.1%; degree of increase of blood insulin ([1]; 30 min.): -; degree of increase of blood insulin ([1]; 60 min.): - |
| COc1ccc(C[C@@H](NC(=O)C=C(Cl)c2ccc(C)cc2)C(=O)O)cc1 [Compound S-10, O-methyl-N-(β-chloro-4-methylcinnamoyl)-D-tyrosine] |  | + |  |  |
| COc1ccc(C[C@H](NC(=O)C(F)=Cc2ccc(C)cc2)C(=O)O)cc1 [Compound S-5, O-methyl-N-(α-fluoro-4-methycinnamoyl)-L-tyrosine] |  | + | ≥ 3000 |  |
